# Laboratory results published in patent US9453026B2, “ACC inhibitors and uses thereof” (Gilead Apollo, Inc., priority 2011, dated 2016).
# Key:
# ACC1 = ACC1 (Homo sapiens, UniProt Q13085); assay: In vitro ACC1 inhibition assay (ADP-Glo); type: biochemical
# Method in brief: (§1)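 Enzyme (human ACC1 or ACC2) and compound, serially diluted 1:3 over 11 points from a 600 uM DMSO stock, were preincubated 15 min before substrate addition.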
# ACC2 = ACC2 (Homo sapiens, UniProt O00763); assay: In vitro ACC2 inhibition assay (ADP-Glo); type: biochemical
# Sequence of ACC2 (O00763 whole entry, species assumed): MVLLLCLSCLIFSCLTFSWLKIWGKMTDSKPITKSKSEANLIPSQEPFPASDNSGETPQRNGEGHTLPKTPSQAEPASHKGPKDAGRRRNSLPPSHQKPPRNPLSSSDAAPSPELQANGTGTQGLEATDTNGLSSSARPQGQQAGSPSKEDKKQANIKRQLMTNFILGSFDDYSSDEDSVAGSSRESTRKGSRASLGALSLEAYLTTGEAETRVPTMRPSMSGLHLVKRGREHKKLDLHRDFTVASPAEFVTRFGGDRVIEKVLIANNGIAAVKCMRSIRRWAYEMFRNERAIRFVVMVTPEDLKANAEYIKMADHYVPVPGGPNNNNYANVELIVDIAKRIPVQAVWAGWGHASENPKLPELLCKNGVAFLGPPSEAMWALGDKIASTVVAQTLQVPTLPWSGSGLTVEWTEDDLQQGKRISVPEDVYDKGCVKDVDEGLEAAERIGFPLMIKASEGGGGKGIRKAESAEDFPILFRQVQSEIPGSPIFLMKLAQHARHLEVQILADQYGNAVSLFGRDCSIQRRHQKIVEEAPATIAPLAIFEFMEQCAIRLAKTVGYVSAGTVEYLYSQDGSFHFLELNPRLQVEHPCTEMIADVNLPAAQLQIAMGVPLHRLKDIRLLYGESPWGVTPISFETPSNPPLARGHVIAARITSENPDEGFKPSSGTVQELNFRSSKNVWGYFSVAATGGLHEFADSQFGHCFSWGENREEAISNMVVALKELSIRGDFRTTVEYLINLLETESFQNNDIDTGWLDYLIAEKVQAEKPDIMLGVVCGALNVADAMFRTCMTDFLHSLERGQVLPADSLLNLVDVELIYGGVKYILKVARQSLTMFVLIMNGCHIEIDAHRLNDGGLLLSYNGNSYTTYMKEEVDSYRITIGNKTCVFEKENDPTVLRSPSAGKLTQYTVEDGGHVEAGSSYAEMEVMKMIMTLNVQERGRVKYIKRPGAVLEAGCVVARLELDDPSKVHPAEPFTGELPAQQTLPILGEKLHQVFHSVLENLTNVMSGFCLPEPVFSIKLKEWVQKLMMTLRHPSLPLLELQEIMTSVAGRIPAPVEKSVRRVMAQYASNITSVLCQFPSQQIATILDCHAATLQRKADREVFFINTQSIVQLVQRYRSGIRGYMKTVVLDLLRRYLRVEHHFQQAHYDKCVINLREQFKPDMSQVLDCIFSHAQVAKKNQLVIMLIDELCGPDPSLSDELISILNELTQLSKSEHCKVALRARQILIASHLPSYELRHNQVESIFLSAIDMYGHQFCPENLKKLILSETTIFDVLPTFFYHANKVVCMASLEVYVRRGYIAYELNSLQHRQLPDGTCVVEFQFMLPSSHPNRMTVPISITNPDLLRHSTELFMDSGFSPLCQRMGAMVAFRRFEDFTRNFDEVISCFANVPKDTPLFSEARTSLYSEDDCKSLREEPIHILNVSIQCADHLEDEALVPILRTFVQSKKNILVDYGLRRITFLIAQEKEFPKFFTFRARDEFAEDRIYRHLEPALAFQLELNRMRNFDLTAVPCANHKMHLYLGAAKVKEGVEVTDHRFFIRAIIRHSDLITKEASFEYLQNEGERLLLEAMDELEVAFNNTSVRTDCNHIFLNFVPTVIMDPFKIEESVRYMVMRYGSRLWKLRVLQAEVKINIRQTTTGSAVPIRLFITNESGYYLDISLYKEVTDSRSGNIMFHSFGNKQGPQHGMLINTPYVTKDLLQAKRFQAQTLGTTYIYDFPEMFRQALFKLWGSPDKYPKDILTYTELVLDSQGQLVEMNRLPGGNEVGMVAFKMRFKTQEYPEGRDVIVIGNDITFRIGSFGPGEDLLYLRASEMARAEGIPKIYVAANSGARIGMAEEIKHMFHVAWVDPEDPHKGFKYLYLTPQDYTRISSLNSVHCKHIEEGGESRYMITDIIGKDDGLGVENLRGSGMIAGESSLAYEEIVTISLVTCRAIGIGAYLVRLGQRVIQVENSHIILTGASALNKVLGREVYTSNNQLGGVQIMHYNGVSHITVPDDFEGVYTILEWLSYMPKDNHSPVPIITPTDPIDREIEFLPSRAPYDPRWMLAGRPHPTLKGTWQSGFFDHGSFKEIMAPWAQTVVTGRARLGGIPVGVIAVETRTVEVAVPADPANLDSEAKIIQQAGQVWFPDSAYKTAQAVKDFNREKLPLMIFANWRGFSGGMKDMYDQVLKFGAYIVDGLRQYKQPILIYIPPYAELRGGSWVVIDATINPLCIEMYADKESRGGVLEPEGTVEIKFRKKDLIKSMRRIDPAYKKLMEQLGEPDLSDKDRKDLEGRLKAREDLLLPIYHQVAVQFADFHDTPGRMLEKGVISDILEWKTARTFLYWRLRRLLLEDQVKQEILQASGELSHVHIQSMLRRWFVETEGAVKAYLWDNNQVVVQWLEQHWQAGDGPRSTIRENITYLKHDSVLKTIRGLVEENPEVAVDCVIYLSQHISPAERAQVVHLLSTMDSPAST
# Method in brief: as §1
# [1] = Respiratory Quotient Measurement Assay; type: in vivo, Sprague-Dawley rats; conditions: rats, FIG. 9 and FIG. 10
# Protocol: Compounds of the present invention were also assayed in a Respiratory Quotient Measurement Assay, as described by Harwood et al. “Isozyme-nonselective N-Substituted Bipiperidylcarboxamide Acetyl-CoA Carboxylase Inhibitors Reduce Tissue Malonyl-CoA Concentrations, Inhibit Fatty Acid Synthesis, and Increase Fatty Acid Oxidation in Cultured Cells and in Experimental Animals” Journal of Biological Chemistry (2008) 278, 37099-37111. An exemplary procedure for the assay, which measures the ratio of carbon dioxide production to oxygen consumption in rats, follows.
# Male Sprague-Dawley rats (350-400 g) housed under standard laboratory conditions, either fed chow, fasted, or fasted and refed a diet high in sucrose for 2 days prior to experimentation were removed from their home cages, weighed, and placed into sealed chambers (43″43″10 cm) of the calorimeter (one rat per chamber). The chambers were placed in activity monitors. The calorimeter was calibrated before each use, air flow rate was adjusted to 1.6 liters/min, and the system settling and sampling times were set to 60 and 15 s, respectively. Base-line oxygen consumption, CO2 production, and ambulatory activity were measured every 10 min for up to 3 h before treatment. […]
structure (smiles),measurement,setting,value
"COc1ccccc1[C@H](Cn1c(=O)n(C(C)(C)C(=O)O)c(=O)c2c(C)c(-c3ncco3)sc21)OC1CCOCC1 [I-181, 2-[1-[2-(2-methoxyphenyl)-2-(oxan-4-yloxy)ethyl]-5-methyl-6-(1,3-oxazol-2-yl)-2,4-dioxo-1H,2H,3H,4H-thieno[2,3-d]pyrimidin-3-yl]-2-methylpropanoic acid]",IC50,ACC1,< 0.1 µM
same,IC50,ACC2,< 0.1 µM
same,RQ relative to baseline,[1],80-90 % of its baseline value
same,"RQ, dose dependence","[1]; doses of 3, 10, 30 and 100 mg/kg",dose-dependent decreases in RQ
